Results: US10392422B2, “Macrocyclic broad spectrum antibiotics” (priority 2014, dated 2019)
In brackets after ≈: the same amount, converted by molar mass. Where two headings read alike, the source gives them in different places.

What was measured:
Test in all cases: MIC, broth micro-dilution technique (CLSI)
[1] = system: Escherichia coli MC4100 harboring the IMP4213; type: cell-based; settings: 35° C., 22 hours; for MIC: Escherichia coli, 22 h
Outline: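 Susceptibility is tested by broth micro-dilution per CLSI, using ten serial 2-fold dilutions beginning at 64 μg/ml or, in a modified version, 4 μg/mL. The E. coli MC4100 strain carries an imp allele raising outer-membrane permeability.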

[2] = system: Methicillin Resistant Staphylococcus aureus strain USA 300 (NRS384); type: cell-based; settings: for MIC: Staphylococcus aureus, 22 h, read-out: MIC (μg/mL) S. aureus
Outline: (§1)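 Cation-adjusted MHB + 0.002% Tween-80; 10-point 2-fold series starting 64 μg/ml (modified protocol: 4 μg/mL). Final inoculum OD600 0.0005; 35° C, 22 h. MIC per CLSI M07-A8 broth microdilution.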

[3] = system: MRSA COL (NRS100); type: cell-based, Staphylococcus aureus; settings: for MIC: Staphylococcus aureus, 22 h, read-out: MIC (μg/mL) (COL)
Outline: as §1

[4] = read-out: MIC (μg/mL) E. coli, Table 2 modified protocol: serial 2-fold dilutions starting from 4 μg/mL
[5] = read-out: MIC (μg/mL) E. coli, Table 1 protocol: serial 2-fold dilutions starting from 64 μg/ml
[6] = Table 1 protocol: serial 2-fold dilutions starting from 64 μg/ml, 35° C., 22 hours

**Q.** Which results are given for `CCCCCCCCc1ccc(C(=O)N[C@@H](CN)C(=O)N(C)[C@@H]2C(=O)N[C@@H](C)C(=O)N[C@H](C(=O)O)Cc3ccc(OCCN)c(c3)-c3cc2ccc3OCCN)cc1` [Compound 300]?
**A.** MIC [1, 4]: 0.023 µg/mL (≈ 0.0287 µM); MIC [2]: 0.5 µg/mL (≈ 0.623 µM); MIC [3]: 0.13 µg/mL (≈ 0.162 µM)

**Q.** With `CCCCCCCCc1ccc(C(=O)N[C@@H](CCN)C(=O)N(C)[C@@H]2C(=O)N[C@@H](C)C(=O)N[C@H](C(=O)O)Cc3ccc(OCCN)c(c3)-c3cc2ccc3OCCN)c(C)c1` [Compound 302] as the molecule, how does the MIC [1, 4] read?
**A.** Its MIC is 0.0088 µg/mL (≈ 0.0106 µM).

**Q.** What about the MIC [2] of the same molecule?
**A.** Its MIC is 0.11 µg/mL (≈ 0.133 µM).

**Q.** And the MIC [3]?
**A.** Its MIC is 0.039 µg/mL (≈ 0.047 µM).

**Q.** For `CCCCCCCCCCCCCC(=O)N[C@@H](CCCN)C(=O)N(C)[C@@H]1C(=O)N[C@@H](C)C(=O)N[C@H](C(=O)O)Cc2ccc(OCCN)c(c2)-c2cc1ccc2OCCN` [Compound 303], which MIC [1, 4] is on record?
**A.** Its MIC is 0.023 µg/mL (≈ 0.0279 µM).

**Q.** And the MIC [2]?
**A.** The MIC was 0.13 µg/mL (≈ 0.158 µM).

**Q.** What about the MIC [3] of the same molecule?
**A.** Its MIC is 0.023 µg/mL (≈ 0.0279 µM).

**Q.** Which results are given for `CCCCCCCCCCCC(=O)N[C@@H](CCN)C(=O)N(C)[C@@H]1C(=O)N[C@@H](C)C(=O)N[C@H](C(=O)O)Cc2ccc(OCCN)c(c2)-c2cc1ccc2OCCN` [Compound 304]?
**A.** MIC [1, 4]: 0.047 µg/mL (≈ 0.0601 µM); MIC [2]: 0.5 µg/mL (≈ 0.639 µM); MIC [3]: 0.13 µg/mL (≈ 0.166 µM)

**Q.** `CCCCCCCCCCC(=O)N[C@@H](CCN)C(=O)N(C)[C@@H]1C(=O)N[C@@H](C)C(=O)N[C@H](C(=O)O)Cc2ccc(OCCN)c(c2)-c2cc1ccc2OCCN` [Compound 305] was tested. Which MIC [1, 4] did it give?
**A.** Its MIC is 0.13 µg/mL (≈ 0.169 µM).

**Q.** What about the MIC [2] of the same molecule?
**A.** The MIC was 1 µg/mL (≈ 1.3 µM).

**Q.** What about the MIC [3] of the same molecule?
**A.** Its MIC is 0.38 µg/mL (≈ 0.495 µM).

**Q.** `CCCCCCCCCC(=O)N[C@@H](CCN)C(=O)N(C)[C@@H]1C(=O)N[C@@H](C)C(=O)N[C@H](C(=O)O)Cc2ccc(OCCN)c(c2)-c2cc1ccc2OCCN` [Compound 306] was tested. Which MIC [1, 4] did it give?
**A.** The MIC was 0.25 µg/mL (≈ 0.332 µM).

**Q.** What about the MIC [2] of the same molecule?
**A.** The MIC was 3 µg/mL (≈ 3.98 µM).

**Q.** What about the MIC [3] of the same molecule?
**A.** Its MIC is 1 µg/mL (≈ 1.33 µM).

**Q.** For `CCCCCCCCC(=O)N[C@@H](CCN)C(=O)N(C)[C@@H]1C(=O)N[C@@H](C)C(=O)N[C@H](C(=O)O)Cc2ccc(OCCN)c(c2)-c2cc1ccc2OCCN` [Compound 307], which MIC [1, 4] is on record?
**A.** Its MIC is 1 µg/mL (≈ 1.35 µM).

**Q.** And the MIC [2]?
**A.** The MIC was 4 µg/mL (≈ 5.41 µM).

**Q.** What about the MIC [3] of the same molecule?
**A.** Its MIC is 3 µg/mL (≈ 4.05 µM).

**Q.** For `CCCCCCCCCCCCCC(=O)N[C@@H](CC)C(=O)N(C)[C@@H]1C(=O)N[C@@H](C)C(=O)N[C@H](C(=O)O)Cc2ccc(OCCN)c(c2)-c2cc1ccc2OCCN` [Compound 308], which MIC [1, 4] is on record?
**A.** The MIC was 0.094 µg/mL (≈ 0.118 µM).

**Q.** And the MIC [2]?
**A.** The MIC was 1 µg/mL (≈ 1.26 µM).

**Q.** What about the MIC [3] of the same molecule?
**A.** The MIC was 0.38 µg/mL (≈ 0.478 µM).

**Q.** `CCCCCCCCc1ccc(C(=O)N[C@@H](CO)C(=O)N(C)[C@@H]2C(=O)N[C@@H](C)C(=O)N[C@H](C(=O)O)Cc3ccc(OCCN)c(c3)-c3cc2ccc3OCCN)c(C)c1` [Compound 309] was tested. Which MIC [1, 4] did it give?
**A.** The MIC was 0.031 µg/mL (≈ 0.0379 µM).

**Q.** And the MIC [2]?
**A.** The MIC was 0.5 µg/mL (≈ 0.612 µM).

**Q.** And the MIC [3]?
**A.** Its MIC is 0.25 µg/mL (≈ 0.306 µM).

**Q.** What does the source list for `C[C@H](NC(=O)[C@@H]1Cc2ccc(OCCN)c(c2)-c2cc(ccc2OCCN)[C@H](N(C)C(=O)[C@H](CCCCN)NC(=O)c2ccc(-c3ccc(Cl)cc3)cc2)C(=O)N[C@@H](C)C(=O)N1)B1O[C@@H]2C[C@@H]3C[C@@H](C3(C)C)[C@]2(C)O1` [Compound 310]?
**A.** MIC [1, 5]: 0.19 µg/mL (≈ 0.181 µM); MIC [2]: 0.5 µg/mL (≈ 0.477 µM); MIC [3]: 0.094 µg/mL (≈ 0.0897 µM)

**Q.** `C[C@@H]1NC(=O)[C@@H](N(C)C(=O)[C@H](CCCCN)NC(=O)c2ccc(-c3ccc(Cl)cc3)cc2)c2ccc(OCCN)c(c2)-c2cc(ccc2OCCN)C[C@@H](C(=O)NCB(O)O)NC1=O` [Compound 311] was tested. Which MIC [1, 5] did it give?
**A.** Its MIC is 0.19 µg/mL (≈ 0.211 µM).

**Q.** And the MIC [2]?
**A.** Its MIC is 1.5 µg/mL (≈ 1.67 µM).

**Q.** What about the MIC [3] of the same molecule?
**A.** Its MIC is 0.13 µg/mL (≈ 0.145 µM).

**Q.** How did the MIC [1, 5] turn out when `C[C@@H]1NC(=O)[C@@H](N(C)C(=O)[C@H](CCCCN)NC(=O)c2ccc(-c3ccc(Cl)cc3)cc2)c2ccc(OCCN)c(c2)-c2cc(ccc2O)C[C@@H](C(=O)O)NC1=O` [Compound 312] was run?
**A.** The MIC was 3 µg/mL (≈ 3.75 µM).

**Q.** What about the MIC [2] of the same molecule?
**A.** Its MIC is 24 µg/mL (≈ 30 µM).

**Q.** What about the MIC [3] of the same molecule?
**A.** The MIC was 3 µg/mL (≈ 3.75 µM).

**Q.** What does the source list for `C[C@H](NC(=O)[C@@H]1Cc2ccc(O)c(c2)-c2cc(ccc2OCCN)[C@H](N(C)C(=O)[C@H](CCCCN)NC(=O)c2ccc(-c3ccc(Cl)cc3)cc2)C(=O)N[C@@H](C)C(=O)N1)B1O[C@@H]2C[C@@H]3C[C@@H](C3(C)C)[C@]2(C)O1` [Compound 313]?
**A.** MIC [1, 5]: 1 µg/mL (≈ 0.996 µM); MIC [2]: 2 µg/mL (≈ 1.99 µM); MIC [3]: 0.38 µg/mL (≈ 0.378 µM)

**Q.** Which results are given for `CCCCCCCCCCCCCC(=O)NC(CCCCN)C(=O)N(C)C1C(=O)NC(C)C(=O)NC(C(=O)NC(C)B2OC3CC4CC(C4(C)C)C3(C)O2)Cc2ccc(OCCN)c(c2)-c2cc1ccc2OCCN` (stereo not drawn) [Compound 314]?
**A.** MIC (μg/mL) E. coli ([1]; Table 1 protocol: serial 2-fold dilutions starting from 64 μg/ml): 0.094 µg/mL (≈ 0.0901 µM); MIC (μg/mL) S. aureus [2, 6]: 0.063 µg/mL (≈ 0.0604 µM); MIC (μg/mL) (COL) [3, 6]: 0.012 µg/mL (≈ 0.0115 µM)
